Test results: US7875601B2, “Cancer treatment with epothilones” (Novartis AG, priority 1998, dated 2011)
Several values for one entry are separate records, joined by “and”; a condition that tells them apart may be missing. Identical values can stand only once. Like-named read-outs stand apart in the source and are kept apart here. Marks after values point to notes of the source that are not given here.

Key:
[1] = Determination of the single i.v. dose MTD in normal female BALB/c mice; assay type: in vivo
Method: The Maximal Tolerated Dose (MTD) is determined according to standard procedures; preferably, in warm-blooded animals the MTD in case of oral or intravenous administration is determined as the Dose of a single administration where no death occurs and a loss of body weight of less than 40, preferably less than 25, percent (%) is found in the treated warm-blooded animal individual (this term here mainly referring to an animal; for humans see below).
For the MTD determination, female BALB/c nude mice or BALB/c mice (obtained from Novartis Animal Farm, Sisseln, Switzerland) are treated once intravenously with epothilone B (n=3 per dose group). The dosage is increased (2, 4, 6, 8, 10 and 12 mg/kg) and the mice are observed for the presentation of overt toxic effects for 10 days after drug treatment.

[2] = test system: human KB-8511 epidermoid carcinoma; assay type: in vivo, female BALB/c nude mice; conditions: for % Body Weight Change / D Body Weight / D Tumor Volume (mm^3): mean ± SEM
Method: (§1) The human epidermal (mouth) carcinoma cell line KB-8511 (a P-gp over-expressing cell line derived from the epidermoid (mouth) KB-31 carcinoma cell line) is obtained from Dr. R. M. Baker, Roswell Park Memorial Institute (Buffalo, N.Y., USA) (for description see Akiyama et al., Somat. Cell. Mol. Genetics 11, 117-126 (1985) and Fojo A., et al., Cancer Res. 45, 3002-3007 (1985)) and is cultured as previously described (Meyer, T., et al., Int. J. Cancer 43 851-856 (1989)).
Female or male BALB/c nu/nu (nude) mice are kept under sterile conditions (10 to 12 mice per Type III cage) with free access to food and water. Mice weigh between 20 and 25 grams at the time of tumor implantation. Tumors are established by subcutaneous injection of cells (minimum 2×10^6 cells in 100 μl PBS or medium) in carrier mice (4-8 mice per cell line). The resulting tumors are serially passaged for a minimum of three consecutive transplantations prior to start of treatment. Tumor fragments (approx. 25 mg) are implanted s.c. into the left flank of animals with a 13-gauge trocar needle while the mice are exposed to Forene (Abbott, Switzerland) anesthesia.
Tumor growth and body weights are monitored once or twice weekly. All treatments are administered intravenously (i.v.) and are initiated when a mean tumor volume of approximately 100 to 250 mm^3 is attained, depending upon the tumor type. Tumor volumes are determined using the formula […] (see Cancer Chemother. Pharmacol. 24:148-154, [1989]). Treatments with epothilone B vary the dose and the frequency of administration. Comparator agents are administered according to previously determined optimal treatment regimens. In addition to presenting changes in tumor volumes over the course of treatment, antitumor activity is expressed as T/C % (mean increase of tumor volumes of treated animals divided by the mean increase of tumor volumes of control animals multiplied by 100). Tumor. regression (%) represents the smallest mean tumor volume compared to the mean tumor volume at the start of treatment, according to the formula Regression (%)=(1−Vend/Vstart)×100(Vend=final mean tumor volume, Vstart=mean tumor volume at the start of treatment. Any animals in which the tumor has reached a size exceeding approximately 1.5 to 2.5 cm^3 are sacrificed. Details can be found below.

[3] = test system: A549 non small cell lung tumors; test: Antitumor activity on A549 tumors, regimen comparison (Example 7); conditions: for % Regression / % T/C / Delta % Body Weight / Delta Mean Tumor Vol. (mm^3): day 37
Method: 3-10 million cells are implanted s.c. into the right axillary (lateral) region of outbred athymic (nu/nu) mice, and are allowed to grow until a tumor volume of approximately 100 mm^3 is established. […] Positive controls are carried out with clinical formulations of TAXOL® diluted 6 fold with D5W and administered i.v. 3×/week.
Antitumor activity is expressed as % T/C (comparing Δ tumor volumes for treatment group to vehicle control group) at the end of the experiment. Regressions are calculated using the formula: −(T/T0−1)×100%, where T is the tumor volume for the treatment group at the end of the experiment, and T0 is the tumor volume at the beginning of the experiment. Statistical significance is evaluated using a one-tailed Student's t-test.

[4] = test system: KB-8511 (Epidermoid, MDR); test: Antiproliferative assay, KB-8511; assay type: cell-based, human
Method: as §1
Antiproliferative assays are performed as previously described (Int. J. Cancer 43, 851-6 (1989)). Briefly, cells are seeded at 1.5×10^3 cells/well into 96-well microtiter plates and incubated overnight. Compounds are added in serial dilutions on day 1. The plates are then incubated for an additional 2 to 5 days, allowing for at least one cell doubling (cell line dependent), after which the cells are fixed with 3.3% v/v glutaraldehyde, washed with water and stained with 0.05% w/v methylene blue. After washing, the dye is eluted with 3% v/v HCl and the optical density measured at 665 nm with a SpectraMax 340 (Bucherer, Basel, Switzerland). IC50 values are determined by a computerized system (SoftPro, Bucherer, Basel, Switzerland) using the formula (OD test−OD start)/(OD control−OD start)×100. IC50 is defined as the drug concentration which leads to 50% of cells per well compared to control cultures (100%) at the end of incubation period.

[5] = 2 mg/kg single i.v. bolus, Experiment 2
[6] = 4 mg/kg single i.v. bolus, Experiment 2
[7] = 6 mg/kg single i.v. bolus, Experiment 1
[8] = 6 mg/kg single i.v. bolus, Experiment 2
[9] = 8 mg/kg single i.v. bolus, Experiment 1
[10] = 8 mg/kg single i.v. bolus, Experiment 2
[11] = 10 mg/kg single i.v. bolus, Experiment 1
[12] = 12 mg/kg single i.v. bolus, Experiment 1

C/C(=C\c1csc(C)n1)[C@@H]1C[C@@H]2O[C@]2(C)CCC[C@H](C)[C@H](O)[C@@H](C)C(=O)C(C)(C)[C@@H](O)CC(=O)O1 [epothilone B]
Body Weight % Change [1, 5]: 12.3 ± 3.0% | Body Weight Δ (mean g ± SD) [1, 5]: 2.3 ± 0.6 g | Mortalities [1, 5]: 0/3 | Body Weight % Change [1, 6]: 6.5 ± 2.6% | Body Weight Δ (mean g ± SD) [1, 6]: 1.3 ± 0.6 g | Mortalities [1, 6]: 0/3 | Body Weight % Change [1, 7]: −28.6 ± 3.5% | Body Weight Δ (mean g ± SD) [1, 7]: -6.1 ± 0.9 g | Mortalities [1, 7]: 1/3 | Body Weight % Change [1, 8]: −27.5 ± 2.1% | Body Weight Δ (mean g ± SD) [1, 8]: -5.3 ± 0.6 g | Mortalities [1, 8]: 2/3 | Body Weight % Change [1, 9]: −22.1 ± 13.1% | Body Weight Δ (mean g ± SD) [1, 9]: -5.1 ± 3.2 g | Mortalities [1, 9]: 3/3 | Body Weight % Change [1, 10]: −25.3 ± 3.9% | Body Weight Δ (mean g ± SD) [1, 10]: -5.0 ± 1.0 g | Mortalities [1, 10]: 3/3 | Body Weight % Change [1, 11]: −24.9 ± 1.6% | Body Weight Δ (mean g ± SD) [1, 11]: -5.6 ± 0.6 g | Mortalities [1, 11]: 3/3 | Body Weight % Change [1, 12]: −23.6 ± 11.9% | Body Weight Δ (mean g ± SD) [1, 12]: -5.4 ± 2.9 g | Mortalities [1, 12]: 3/3 | MTD ([1]; single dose i.v., normal mice): 4 mg/kg | Regression ([2]; 1 mg/kg, i.v. once per week): none | Survival (No. alive/total) ([2]; 1 mg/kg, i.v. once per week): 8/8 | T/C ([2]; 1 mg/kg, i.v. once per week, final): 81% | % Body Weight Change ([2]; 1 mg/kg, i.v. once per week): 12 ± 1% | D Body Weight ([2]; 1 mg/kg, i.v. once per week): 2.6 ± 0.3 g | D Tumor Volume (mm^3) ([2]; 1 mg/kg, i.v. once per week): 1620 ± 290 mm^3 | Survival (No. alive/total) ([2]; 2 mg/kg, i.v. once per week): 8/8 | T/C ([2]; 2 mg/kg, i.v. once per week, final): 14% | % Body Weight Change ([2]; 2 mg/kg, i.v. once per week): 5 ± 2% | D Body Weight ([2]; 2 mg/kg, i.v. once per week): 1.1 ± 0.4 g | D Tumor Volume (mm^3) ([2]; 2 mg/kg, i.v. once per week): 289 ± 204 mm^3 | mice with undetectable tumors at the end of the experiment ([2]; 2 mg/kg/week): ⅛ | Survival (No. alive/total) ([2]; 4 mg/kg, i.v. once on day 13): 8/8 | T/C ([2]; 4 mg/kg, i.v. once on day 13, final): 24% | % Body Weight Change ([2]; 4 mg/kg, i.v. once on day 13): 3 ± 2% | D Body Weight ([2]; 4 mg/kg, i.v. once on day 13): 0.6 ± 0.6 g | D Tumor Volume (mm^3) ([2]; 4 mg/kg, i.v. once on day 13): 484 ± 103 mm^3 | Regression ([2]; 4 mg/kg, i.v. once on day 13, transient, day 25 post transplantation): −51% | Survival (No. alive/total) ([2]; 4 mg/kg, i.v. once per week): 8/8 | T/C ([2]; 4 mg/kg, i.v. once per week (days 13, 21 and 27)): Regression | % Body Weight Change ([2]; 4 mg/kg, i.v. once per week): −5±7% and −5 ± 3% | D Body Weight ([2]; 4 mg/kg, i.v. once per week): -1.1 ± 0.4 g | D Tumor Volume (mm^3) ([2]; 4 mg/kg, i.v. once per week): −107 ± 14 mm^3 | mice with undetectable tumors at the end of the experiment ([2]; 4 mg/kg/week): ⅝ | Dead/Total ([3]; 0.5 mg/kg i.v. 5x/week): 0/8 | % Regression ([3]; 0.5 mg/kg i.v. 5x/week): none | % T/C ([3]; 0.5 mg/kg i.v. 5x/week): 41** % | Delta % Body Weight ([3]; 0.5 mg/kg i.v. 5x/week): −23.1% | Delta Mean Tumor Vol. (mm^3) ([3]; 0.5 mg/kg i.v. 5x/week): 178 mm^3 | % T/C ([3]; 0.5 mg/kg i.v. 5x/week, listed as Epothilone B): 41% | body weight loss ([3]; 0.5 mg/kg, 5×/week): 23% | Dead/Total ([3]; 1.5 mg/kg i.v. 3x/week): 8/8 | Dead/Total ([3]; 1.5 mg/kg i.v. 3x/week, listed as Epothilone B): all animals have to be euthanatized | body weight loss ([3]; 4 mg/kg administered 1×/week): 13% | Dead/Total ([3]; 4 mg/kg i.v. 1x/week): 0/8 | % Regression ([3]; 4 mg/kg i.v. 1x/week): none | % T/C ([3]; 4 mg/kg i.v. 1x/week): 7** % | Delta % Body Weight ([3]; 4 mg/kg i.v. 1x/week): −13.2% | Delta Mean Tumor Vol. (mm^3) ([3]; 4 mg/kg i.v. 1x/week): 32 mm^3 | % T/C ([3]; 4 mg/kg i.v. 1x/week, listed as Epothilone B): 7% | Dead/Total ([3]; 6 mg/kg i.v. once (day 16)): 0/8 | % Regression ([3]; 6 mg/kg i.v. once (day 16)): none | % T/C ([3]; 6 mg/kg i.v. once (day 16)): 41** % | Delta % Body Weight ([3]; 6 mg/kg i.v. once (day 16)): +8.5% | Delta Mean Tumor Vol. (mm^3) ([3]; 6 mg/kg i.v. once (day 16)): 178 mm^3 | % T/C ([3]; 6 mg/kg i.v. once (day 16), listed as Epothilone B): 41% | IC50 ([4]; KB-8511, 2 d exposure, mean ± SD, read-out: IC50 for growth inhibition): 0.89 ± 0.47 nM | relative resistance, IC50 (resistant line)/IC50 (parental line) ([4]; KB-8511 vs parental line): (1.25)
